Laboratory results as given in PMC4861662 (ChemMedChem, 2016).
Like-named read-outs stand apart in the source and are kept apart here.

How the values were obtained:
[1] = container M2, ref [20a],[21a], cited from earlier work; for Initial slope of the PSD: 20 mM sodium phosphate buffered D2O, pD 7.4, rt; for Krel: referenced to the weakest binding container (generally HP-β-CD), TL = too large to be determined because slope ≈ 1
[2] = Phase solubility diagram; conditions: for Highest drug concentration achieved with container / Initial slope of the PSD / Ka of container•drug complex: container SBE-β-CD; for Initial slope of the PSD: 20 mM sodium phosphate buffered D2O, pD 7.4, rt; for Ka of container•drug complex: from PSD slope and S0 (equation 1)
[3] = Phase solubility diagram; conditions: container M2
[4] = Phase solubility diagram; conditions: for Highest drug concentration achieved with container / Initial slope of the PSD / Krel / Ka of container•drug complex: container M2C2; for Initial slope of the PSD: 20 mM sodium phosphate buffered D2O, pD 7.4, rt; for Krel: referenced to the weakest binding container (generally HP-β-CD); for Ka of container•drug complex: from PSD slope and S0 (equation 1)
[5] = container HP-β-CD; from PSD slope and S0 (equation 1); ref [20a],[21a]; cited from earlier work
[6] = Phase solubility diagram; conditions: for Initial slope of the PSD / Ka of container•drug complex / Krel: container M2C4; for Initial slope of the PSD: 20 mM sodium phosphate buffered D2O, pD 7.4, rt, Gel = gel formed; for Ka of container•drug complex: from PSD slope and S0 (equation 1); for Krel: referenced to the weakest binding container (generally HP-β-CD)
[7] = Inherent solubility of the drug; conditions: 20 mM sodium phosphate buffered D2O, pD 7.4, rt
[8] = Inherent solubility of container by 1H NMR assay of saturated solution; type: physicochemical; conditions: SBE-β-CD

Row | inherent solubility of container [8] | Compound | Initial slope of the PSD [1] | Krel [1] | Highest drug concentration achieved with container [2] | Initial slope of the PSD [2] | Highest drug concentration achieved with container [3] | Highest drug concentration achieved with container [4] | Initial slope of the PSD [4] | Krel [4] | Ka of container•drug complex [5] | Ka of container•drug complex [2] | Ka of container•drug complex [4] | concentration of M2C4 above which gels form with drug ([6]; M2C4 used as solubilizing agent) | Initial slope of the PSD [6] | Ka of container•drug complex [6] | Krel [6] | S0, inherent solubility of the drug [7] | gel formation ([6]; 68 mM container M2C4) | gel formation ([4]; 68 mM container M2C2) | average Krel relative to HP-β-CD ([2]; SBE-β-CD versus HP-β-CD, averaged over drugs of the test set)
1 | – | COc1cc2c(cc1O)CC[C@@H]1[C@@H]2CC[C@]2(C)[C@@H](O)CC[C@@H]12 [2-Methoxy estradiol] | 0.79 | 47/– | 35.9 mM | 0.21 | 6.42 mM | 34.1 mM | 0.49 | 12/– | – | – | – | – | – | – | – | – | – | – | –
2 | – | CCCSc1ccc2nc(NC(=O)OC)[nH]c2c1 [Albendazole] | 0.48 | 62 | 3.94 mM | 0.027 | 4.48 mM | 2.78 mM | 0.035 | 2.4 | 5400 M⁻¹ | 11000 M⁻¹ | 14000 M⁻¹ | – | – | – | – | – | – | – | –
3 | – | CCCCc1oc2ccccc2c1C(=O)c1cc(I)c(OCCN(CC)CC)c(I)c1 [Amiodarone] | 1.03 | – | – | 0.60 | – | – | 0.65 | 19 | 1500 M⁻¹ | 23000 M⁻¹ | 28000 M⁻¹ | greater than 16 mM | – | – | – | – | – | – | –
4 | – | O=C1CCc2ccc(OCCCCN3CCN(c4cccc(Cl)c4Cl)CC3)cc2N1 [Aripiprazole] | 0.31 | 8.8 | 8.44 mM | 0.048 | 3.20 mM | 9.26 mM | 0.28 | 7.7 | – | 2200 M⁻¹ | 17000 M⁻¹ | – | – | – | – | – | – | – | –
5 | – | CC[C@@]1(O)C(=O)OCc2c1cc1n(c2=O)Cc2cc3ccccc3nc2-1 [Camptothecin] | 1.1 | – | 0 mM | 0 | 11.6 mM | 28.3 mM | 0.41 | 1 | – | – | 13000 M⁻¹ | – | – | – | – | – | – | – | –
6 | – | C(=C\c1ccccc1)/CN1CCN(C(c2ccccc2)c2ccccc2)CC1 [Cinnarizine] | – | – | – | 0.008 | – | – | 0.26 | 170 | – | 580 M⁻¹ | 25000 M⁻¹ | – | – | – | – | – | – | – | –
7 | – | C[C@]12CC[C@@H]3c4ccc(O)cc4CC[C@H]3[C@@H]1CC[C@@H]2O [Estradiol] | 0.92 | 51 | – | 0.59 | – | – | 0.67 | 9.1 | 26000 M⁻¹ | 170000 M⁻¹ | 230000 M⁻¹ | – | 0.59 | 160000 M⁻¹ | 6.5 | – | – | – | –
8 | – | C#C[C@]1(O)CC[C@H]2[C@@H]3CCc4cc(O)ccc4[C@H]3CC[C@@]21C [Ethynyl Estradiol] | 1.1 | – | 131 mM | – | 10.5 mM | 33.6 mM | – | – | 36000 M⁻¹ | – | – | – | – | – | – | – | – | – | –
9 | – | COc1ccc2c(c1)c(CC(=O)O)c(C)n2C(=O)c1ccc(Cl)cc1 [Indomethacin] | 0.47 | 67 | 9.92 mM | 0.23 | 6.70 mM | 6.69 mM | 0.13 | 11 | 2400 M⁻¹ | 51000 M⁻¹ | 25000 M⁻¹ | – | – | – | – | – | – | – | –
10 | – | N[C@@H](Cc1ccc(N(CCCl)CCCl)cc1)C(=O)O [Melphalan] | 1.1 | – | 87.8 mM | 0.50 | 16.1 mM | 38.2 mM | 0.43 | 6.0/– | – | – | – | – | – | – | – | – | – | – | –
11 | – | O=C(NC1=CC(=O)[C@H]2O[C@H]2[C@H]1O)c1cc2ccccc2[nH]c1=O [PBS-1086] | 0.89 | 3.5 | 0 mM | 0 | 12.5 mM | 16.5 mM | 0.70 | 1 | – | – | 510000 M⁻¹ | – | – | – | – | 0.0045 mM | – | – | –
12 | – | CC/C(=C(\c1ccccc1)c1ccc(OCCN(C)C)cc1)c1ccccc1 [Tamoxifen] | 0.10 | 3.9 | – | – | – | – | – | – | 2400 M⁻¹ | – | – | – | – | – | – | – | – | – | –
13 | – | Cc1c(Cl)cccc1Nc1ccccc1C(=O)O [Tolfenamic acid] | 0.54 | 150 | 8.07 mM | 0.11 | 5.6 mM | 6.79 mM | 0.11 | 16 | 4100 M⁻¹ | 64000 M⁻¹ | 66000 M⁻¹ | – | – | – | – | – | – | – | –
14 | – | C[C@@H](c1ncncc1F)[C@](O)(Cn1cncn1)c1ccc(F)cc1F [Voriconazole] | – | – | 94.7 mM | 0.53 | 9.23 mM | 61.9 mM | 0.89 | 29 | – | 30000 M⁻¹ | 210000 M⁻¹ | – | 0.85 | 140000 M⁻¹ | 19 | – | no evidence of gel formation | no evidence of gel formation | –
15 | > 175 mM | sulfobutylether-β-cyclodextrin [SBE-β-CD] | – | – | – | – | – | – | – | – | – | – | – | – | – | – | – | – | – | – | 12
